Measured values from patent US6855730B2, “3-methylidenyl-2-indolinone modulators of protein kinase” (Sugen, Inc., priority 1998, dated 2005).

target: EGFR (Homo sapiens, UniProt P00533); experiment: Biochemical EGFR assay (ELISA, A431 cell lysate); design: A431 cell lysate (Screening Lab, SUGEN, Inc.); host or cells: A431; details: read-out: bio EGFr IC50
Outline: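 EGFR captured from A431 cell lysate onto anti-EGFR-coated plates, then incubated with test compound for 30 min at room temperature. Tyrosine phosphorylation with ATP/MnCl2 was stopped with EDTA after 5 min and detected by anti-phosphotyrosine ELISA with peroxidase/ABTS read-out.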

Chain of EGFR (P00533 25-1210): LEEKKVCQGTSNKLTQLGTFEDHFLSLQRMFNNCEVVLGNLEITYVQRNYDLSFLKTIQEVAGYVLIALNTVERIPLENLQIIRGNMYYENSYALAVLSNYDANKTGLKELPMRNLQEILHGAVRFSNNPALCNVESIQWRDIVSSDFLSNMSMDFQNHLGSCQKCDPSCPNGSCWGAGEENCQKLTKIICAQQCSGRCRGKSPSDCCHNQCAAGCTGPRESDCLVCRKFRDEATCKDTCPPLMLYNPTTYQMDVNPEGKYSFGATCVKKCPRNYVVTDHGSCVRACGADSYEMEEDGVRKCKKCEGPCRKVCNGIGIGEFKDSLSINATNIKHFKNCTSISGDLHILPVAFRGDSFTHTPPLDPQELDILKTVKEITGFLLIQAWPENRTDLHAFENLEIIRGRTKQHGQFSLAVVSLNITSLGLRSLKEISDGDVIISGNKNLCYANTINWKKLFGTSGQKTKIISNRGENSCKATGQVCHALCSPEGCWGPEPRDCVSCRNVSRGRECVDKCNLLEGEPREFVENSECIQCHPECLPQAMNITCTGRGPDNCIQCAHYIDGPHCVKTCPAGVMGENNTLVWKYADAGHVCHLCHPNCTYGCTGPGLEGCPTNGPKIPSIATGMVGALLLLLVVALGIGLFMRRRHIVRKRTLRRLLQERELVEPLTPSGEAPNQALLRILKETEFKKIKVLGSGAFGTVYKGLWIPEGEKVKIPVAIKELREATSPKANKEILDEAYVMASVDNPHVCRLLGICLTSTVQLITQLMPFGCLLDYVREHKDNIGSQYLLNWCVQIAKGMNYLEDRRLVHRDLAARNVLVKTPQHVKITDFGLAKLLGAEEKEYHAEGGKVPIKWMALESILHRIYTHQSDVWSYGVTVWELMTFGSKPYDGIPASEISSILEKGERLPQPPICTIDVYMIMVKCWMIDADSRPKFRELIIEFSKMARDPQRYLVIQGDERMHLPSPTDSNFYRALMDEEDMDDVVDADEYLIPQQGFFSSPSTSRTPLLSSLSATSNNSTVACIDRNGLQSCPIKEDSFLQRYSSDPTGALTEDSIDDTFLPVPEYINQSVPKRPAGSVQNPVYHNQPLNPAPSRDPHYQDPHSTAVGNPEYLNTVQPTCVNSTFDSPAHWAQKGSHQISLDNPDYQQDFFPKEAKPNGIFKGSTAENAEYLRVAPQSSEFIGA

| IC50 [µM] | Structure (SMILES) |
| --- | --- |
| > 100 | COC(=O)c1ccc2c(c1)/C(=C\c1cc(C(C)C)c(OC)c(C(C)C)c1)C(=O)N2 [Example 6, 3-(3,5-Diisopropyl-4-methoxybenzylidene)-2-oxo-2,3-dihydro-1H-indole-5-carboxylic acid methyl ester] |
| > 100 | CC1(C)CCc2cc(C=C3C(=O)Nc4ccc(Br)cc43)ccc2O1 (racemic) [Example 34, 5-Bromo-3-(2,2-dimethylchroman-6-ylmethylene)-1,3-dihydroindol-2-one] |
| > 100 | CCOc1cccc(-c2cc(OC)c(OC)cc2/C=C2/C(=O)Nc3ccccc32)c1 [Example 58, 3-(3′-Ethoxy-4,5-dimethoxybiphenyl-2-ylmethylene)-1,3-dihydroindol-2-one] |
| > 100 | COc1ccc(/C=C2/C(=O)Nc3ccc(Cl)cc32)cc1-c1ccccc1 [Example 67, 5-Chloro-3-(6-methoxybiphenyl-3-ylmethylene)-1,3-dihydroindol-2-one] |
